Data taken from patent publication US11479546B2, “Antimalarial hexahydropyrimidine analogues” (UCB Biopharma SRL, priority 2018, dated 2022).

Tested on: Plasmodium falciparum 3D7
Experiment: P. falciparum 3D7 asexual blood stage assay, Assay Procedure Version 1 (SYBR green readout)
Format: cell-based
Settings: 3D7, Erythrocyte, Version 1 of the assay procedure (no asterisk), 72 h incubation in infected erythrocytes, 10,000 nM to 0.51 nM
Procedure: Asexual Blood Stage Assay
The assay used to measure the effect of test compounds on a bloodstream stage of Plasmodium falciparum 3D7 strain employs SYBR green as the readout. This is a dye that binds to double stranded deoxyribonucleic acid (DNA) with a resulting increase in fluorescence, allowing detection of P. falciparum DNA in infected erythrocytes, and thereby providing a measure of parasite growth and propagation.
P. falciparum Culture Maintenance
Erythrocytes (A+blood) were prepared for both parasite culture and assay by washing 4 times with incomplete media (15.9 g RPMI 1640 (25 mM HEPES, L-glutamine), 1 g NaHCO3, 2 g glucose, 400 μL gentacin (500 mg/mL), 2 mL hypoxanthine solution (13.6 g/L in 0.1M NaOH pH 7.3) in 1 litre of media). The cells were centrifuged at 1800 g for 5 minutes, before decanting the supernatant and re-suspending in fresh incomplete media. On the final wash, the cells were re-suspended in complete media (incomplete media with 5 g/L AlbumaxII), and centrifuged at 1800 g for 3 minutes. This cell sediment was treated as 100% haematocrit.
P. falciparum 3D7 was cultured in erythrocytes at 5% haematocrit in complete media at 37° C. (1% O2, 3% CO2, balance N2). Cultures were split on a weekly basis to achieve a 1% parasitaemia in erythrocites at 5% haematocrit in fresh media. Culture media is replaced by fresh media every other day (2 times during the week).
Assay Procedure—Version 1
On day 1, test compounds were added to assay plates using Echo dispensing technology (3 fold dilution and 10 points titration). 50 nL of each compound dilution was added to 50 μL of culture (5% haematocrit, 0.5% parasitaemia) and incubated for 72 h at 37° C. (1% O2, 3% CO2, balance N2). Final concentrations of test compounds ranged from 10,000 nM to 0.51 nM, in […].
On day 4, 10 μL SYBR green (Invitrogen S7563 supplied as 10,000×concentrate in DMSO) pre-diluted to 3× concentrate with Lysis buffer (20 mM Tris pH 7.9, 5% EDTA, 0.16% w/v, 1.6% TX100 v/v) was added to the cultures and incubated in the dark, overnight, at room temperature.
On day 5, fluorescent signal was measured using a BioTek plate reader (excitation 485 nm, emission 528 nm). All data were processed using IDBS ActivityBase. Raw data were converted into percent inhibition through linear regression by setting the high inhibition control as 100% and the no inhibition control as 0%. Quality control criteria for passing plates were as follows: Z′>0.5, S:B>3, % CV(no inhibition control)<15. The formula used to calculate Z′ is
All EC50 curve fitting was undertaken using the following 4 parametric equation:
[formula] where A=% inhibition at bottom; B=% inhibition at top; C=EC50; D=slope; x=inhibitor concentration; and y=% inhibition. […] Assay Procedure—Version 2

Compound | IC50
C[C@@]1(c2cccc(Nc3cc(OC(F)(F)F)ccc3F)c2Cl)CC(=O)N(C2CCOCC2)C(=N)N1 [Example 22, (6S)-6-{2-Chloro-3-[2-fluoro-5-(trifluoromethoxy)anilino]-phenyl}-2-imino-6-methyl-3-(tetrahydropyran-4-yl)-hexahydropyrimidin-4-one] | 1520 nM
COc1cc(F)cc(Nc2cccc([C@]3(C)CC(=O)N(C4CCOCC4)C(=N)N3)c2Cl)c1 [Example 23, (6S)-6-[2-Chloro-3-(3-fluoro-5-methoxyanilino)phenyl]-2-imino-6-methyl-3-(tetrahydro-pyran-4-yl)hexahydropyrimidin-4-one] | 1340 nM
C[C@@]1(c2cccc(Nc3ccc(C#N)c(Cl)c3)c2Cl)CC(=O)N(C2CCOCC2)C(=N)N1 [Example 24, 2-Chloro-4-{2-chloro-3-[(4S)-2-imino-4-methyl-6-oxo-1-(tetrahydropyran-4-yl)-hexahydropyrimidin-4-yl]-anilino}benzonitrile] | 1670 nM
C[C@@]1(c2cccc(Nc3ccc(N4CCOCC4)nc3)c2Cl)CC(=O)N(C2CCOCC2)C(=N)N1 [Example 25, (6S)-6-(2-Chloro-3-{[6-(morpholin-4-yl)pyridin-3-yl]amino}phenyl)-2-imino-6-methyl-3-(tetrahydropyran-4-yl)hexahydropyrimidin-4-one] | 821 nM
C[C@@]1(c2cccc(Nc3cccnc3C(F)(F)F)c2Cl)CC(=O)N(C2CCOCC2)C(=N)N1 [Example 26, (6S)-6-(2-Chloro-3-{[2-(trifluoromethyl)pyridin-3-yl]amino}phenyl)-2-imino-6-methyl-3-(tetrahydropyran-4-yl)hexahydropyrimidin-4-one] | 331 nM
COc1ccc(F)cc1Nc1cccc([C@]2(C)CC(=O)N(C3CCOCC3)C(=N)N2)c1Cl [Example 27, (6S)-6-[2-Chloro-3-(5-fluoro-2-methoxyanilino)phenyl]-2-imino-6-methyl-3-(tetrahydro-pyran-4-yl)hexahydropyrimidin-4-one] | 236 nM
Cc1ncccc1Nc1cccc([C@]2(C)CC(=O)N(C3CCOCC3)C(=N)N2)c1Cl [Example 28, (6S)-6-{2-Chloro-3-[(2-methyl-pyridin-3-yl)amino]phenyl}-2-imino-6-methyl-3-(tetrahydro-pyran-4-yl)hexahydropyrimidin-4-one] | 2960 nM
C[C@@]1(c2cccc(Nc3ccnc(F)c3)c2Cl)CC(=O)N(C2CCOCC2)C(=N)N1 [Example 29, (6S)-6-{2-Chloro-3-[(2-fluoro-pyridin-4-yl)amino]phenyl}-2-imino-6-methyl-3-(tetrahydro-pyran-4-yl)hexahydropyrimidin-4-one] | 539 nM
C[C@@]1(c2cccc(Nc3cnc4ccccc4c3)c2Cl)CC(=O)N(C2CCOCC2)C(=N)N1 [Example 30, (6S)-6-[2-Chloro-3-(quinolin-3-ylamino)phenyl]-2-imino-6-methyl-3-(tetrahydropyran-4-yl)hexahydropyrimidin-4-one] | 640 nM
C[C@@]1(c2cccc(Nc3ccc(C(F)(F)F)nc3)c2Cl)CC(=O)N(C2CCOCC2)C(=N)N1 [Example 31, (6S)-6-(2-Chloro-3-{[6-(trifluoromethyl)pyridin-3-yl]amino}phenyl)-2-imino-6-methyl-3-(tetrahydropyran-4-yl)hexahydropyrimidin-4-one] | 430 nM
C[C@@]1(c2cccc(Nc3cc(C(F)(F)F)cnc3Cl)c2Cl)CC(=O)N(C2CCOCC2)C(=N)N1 [Example 32, (6S)-6-(2-Chloro-3-{[2-chloro-5-(trifluoromethyl)pyridin-3-yl]amino}phenyl)-2-imino-6-methyl-3-(tetrahydropyran-4-yl)hexahydropyrimidin-4-one] | 851 nM
C[C@@]1(c2cccc(Nc3ccc(Cl)c(F)c3)c2Cl)CC(=O)N(C2CCOCC2)C(=N)N1 [Example 33, (6S)-6-[2-Chloro-3-(4-chloro-3-fluoroanilino)phenyl]-2-imino-6-methyl-3-(tetrahydropyran-4-yl)hexahydropyrimidin-4-one] | 1810 nM
C[C@@]1(c2cccc(Nc3cc(Cl)cc(C#N)c3)c2Cl)CC(=O)N(C2CCOCC2)C(=N)N1 [Example 34, 3-Chloro-5-{2-chloro-3-[(4S)-2-imino-4-methyl-6-oxo-1-(tetrahydropyran-4-yl)-hexahydropyrimidin-4-yl]-anilino}benzonitrile] | 790 nM
C[C@@]1(c2cccc(Nc3cn4ccccc4n3)c2Cl)CC(=O)N(C2CCOCC2)C(=N)N1 [Example 35, (6S)-6-[2-Chloro-3-(imidazo-[1,2-a]pyridin-2-ylamino)-phenyl]-2-imino-6-methyl-3-(tetrahydropyran-4-yl)-hexahydropyrimidin-4-one] | 2380 nM
C[C@@]1(c2cccc(Nc3ccccc3F)c2Cl)CC(=O)N(C2CCOCC2)C(=N)N1 [Example 36, (6S)-6-[2-Chloro-3-(2-fluoro-anilino)phenyl]-2-imino-6-methyl-3-(tetrahydropyran-4-yl)hexahydropyrimidin-4-one] | 2900 nM
C[C@@]1(c2cccc(Nc3ccc(OC(F)F)cc3)c2Cl)CC(=O)N(C2CCOCC2)C(=N)N1 [Example 37, (6S)-6-{2-Chloro-3-[4-(difluoro-methoxy)anilino]phenyl}-2-imino-6-methyl-3-(tetrahydro-pyran-4-yl)hexahydropyrimidin-4-one] | 1150 nM
C[C@@]1(c2cccc(Nc3cc(F)c(F)cc3F)c2Cl)CC(=O)N(C2CCOCC2)C(=N)N1 [Example 38, (6S)-6-[2-Chloro-3-(2,4,5-trifluoroanilino)phenyl]-2-imino-6-methyl-3-(tetrahydro-pyran-4-yl)hexahydropyrimidin-4-one] | 811 nM
C[C@@]1(c2cccc(Nc3ccc(S(C)(=O)=O)cc3)c2Cl)CC(=O)N(C2CCOCC2)C(=N)N1 [Example 39, (6S)-6-[2-Chloro-3-(4-methyl-sulfonylanilino)phenyl]-2-imino-6-methyl-3-(tetrahydro-pyran-4-yl)hexahydropyrimidin-4-one] | 2090 nM
C[C@@]1(c2cccc(Nc3ccc(C#N)nc3)c2Cl)CC(=O)N(C2CCOCC2)C(=N)N1 [Example 40, 5-{2-Chloro-3-[(4S)-2-imino-4-methyl-6-oxo-1-(tetrahydro-pyran-4-yl)hexahydropyrimidin-4-yl]anilino}pyridine-2-carbo-nitrile] | 1510 nM
C[C@@]1(c2cccc(Nc3cccc(S(C)(=O)=O)c3)c2Cl)CC(=O)N(C2CCOCC2)C(=N)N1 [Example 41, (6S)-6-[2-Chloro-3-(3-methyl-sulfonylanilino)phenyl]-2-imino-6-methyl-3-(tetrahydro-pyran-4-yl)hexahydropyrimidin-4-one] | 1950 nM
C[C@@]1(c2cccc(Nc3ccc(F)cc3F)c2Cl)CC(=O)N([C@H]2C[C@@](C)(O)C2)C(=N)N1 [Example 120, (6S)-6-[2-Chloro-3-(2,4-difluoroanilino)phenyl]-3-(3-hydroxy-3-methylcyclobutyl)-2-imino-6-methylhexahydro-pyrimidin-4-one] | 652 nM
C[C@@]1(c2cccc(Nc3ccc(C#N)c(F)c3)c2Cl)CC(=O)N([C@H]2C[C@@](C)(O)C2)C(=N)N1 [Example 121, 4-{2-Chloro-3-[(4S)-1-(3-hydroxy-3-methylcyclobutyl)-2-imino-4-methyl-6-oxo-hexahydropyrimidin-4-yl]-anilino}-2-fluorobenzonitrile] | 1660 nM
COc1ccc(Nc2cccc([C@]3(C)CC(=O)N(C4CCOCC4)C(=N)N3)c2Cl)cc1 [Example 159, (6S)-6-[2-Chloro-3-(4-methoxy-anilino)phenyl]-2-imino-6-methyl-3-(tetrahydropyran-4-yl)hexahydropyrimidin-4-one] | 2280 nM
Cc1ccc(Nc2cccc([C@]3(C)CC(=O)N(C4CCOCC4)C(=N)N3)c2Cl)cc1 [Example 160, (6S)-6-[2-Chloro-3-(4-methyl-anilino)phenyl]-2-imino-6-methyl-3-(tetrahydropyran-4-yl)hexahydropyrimidin-4-one] | 1680 nM
COc1cc(Nc2cccc([C@]3(C)CC(=O)N(C4CCOCC4)C(=N)N3)c2Cl)cc(OC)c1 [Example 161, (6S)-6-[2-Chloro-3-(3,5-dimethoxyanilino)phenyl]-2-imino-6-methyl-3-(tetrahydro-pyran-4-yl)hexahydropyrimidin-4-one] | 1680 nM
